Our source for the TGI values is PubChem BioAssay (NCI).

Molecules are shown by their SMILES.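 Each compound was tested at five concentrations against cells in 96-well plates for 48 hours. TGI is the concentration that stops growth completely.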 Where a SMILES comes first, the peptide text is derived from it. The star is where a group is joined. Boc = CC(C)(C)OC(=O)*

Some test systems named below: COLO 205 colon; RPMI-8226 leukemia; MDA-MB-231 breast; NCI-H226 lung; MDA-N; EKVX NSCLC; SK-MEL-5 melanoma; IGROV1 ovarian; CAKI-1 renal; HL-60(TB) leukemia.
Common to all, as to assay: growth of human tumour cells (NCI), 48 h

Take `N[C@H]1c2c(Br)sc(Br)c2C(=O)[C@H]1O`: the TGI in the assay with COLO 205 colon is 22.2 µM; with RPMI-8226 leukemia it was 57.4 µM; in the assay on MDA-MB-231 breast, 36.1 µM; in the assay with NCI-H226 lung, 62 µM; in the assay on MDA-N, 30.1 µM; with EKVX NSCLC it was 30.2 µM. In addition, the TGI with SK-MEL-5 melanoma was 41.8 µM; in the assay with IGROV1 ovarian, 32.8 µM; in the assay with CAKI-1 renal it was 16.7 µM; in the assay with HL-60(TB) leukemia it was 10.5 µM.
Consider `CC(C)(C)COC(=O)C(C)(C)NC(=O)C(CC(=O)OCc1ccccc1)NC(=O)OCc1ccccc1` (stereo not given), for which the TGI is 44 µM with COLO 205 colon; > 100 µM with RPMI-8226 leukemia; > 100 µM in the assay on MDA-MB-231 breast; 85.2 µM with NCI-H226 lung; > 100 µM with MDA-N; > 100 µM with EKVX NSCLC. Besides, the TGI with SK-MEL-5 melanoma was 29.1 µM; with IGROV1 ovarian it was > 100 µM; in the assay on CAKI-1 renal, > 100 µM; in the assay with HL-60(TB) leukemia, > 100 µM.
As for `Cn1c(-c2ccc[se]2)ccc1-c1ccc(C=O)[se]1`, the TGI is > 49.4 µM in the assay on COLO 205 colon; > 70.2 µM in the assay with RPMI-8226 leukemia; > 100 µM with MDA-MB-231 breast; 2.3 µM in the assay with NCI-H226 lung; > 100 µM in the assay on MDA-N; > 100 µM in the assay with EKVX NSCLC. The TGI in the assay on SK-MEL-5 melanoma is > 100 µM; in the assay on IGROV1 ovarian, 0.487 µM; in the assay on CAKI-1 renal it was 0.738 µM; in the assay with HL-60(TB) leukemia, > 100 µM.
For the molecule `C/C=C1/CN2CCC34c5ccccc5N(C)C23C2CC1C4(C(=O)OC)C(OC(C)=O)O2` (stereo not given), the TGI with COLO 205 colon, with RPMI-8226 leukemia, with MDA-MB-231 breast, with NCI-H226 lung, in the assay with MDA-N and in the assay with EKVX NSCLC was > 100 µM each time. The TGI with SK-MEL-5 melanoma, in the assay on IGROV1 ovarian, with CAKI-1 renal and with HL-60(TB) leukemia was > 100 µM throughout.
On to `COc1ccc(-n2c(SC(CN3CCOCC3)CN3CCCC3=O)nc3ccccc3c2=O)cc1` (stereo not given), for which the TGI with COLO 205 colon, in the assay on RPMI-8226 leukemia, in the assay with MDA-MB-231 breast, with NCI-H226 lung, with MDA-N and with EKVX NSCLC was > 100 µM in each case. Besides, the TGI in the assay on SK-MEL-5 melanoma, in the assay on IGROV1 ovarian, with CAKI-1 renal and in the assay with HL-60(TB) leukemia was > 100 µM in each case.
With `Cc1ncc([N+](=O)[O-])n1CC[N+](C)([O-])CCCCn1ccnc1[N+](=O)[O-]` (stereo not given), the TGI with COLO 205 colon, in the assay with RPMI-8226 leukemia, in the assay on MDA-MB-231 breast, in the assay with NCI-H226 lung, in the assay on MDA-N and in the assay on EKVX NSCLC was > 100 µM in each case. Further, the TGI in the assay with SK-MEL-5 melanoma, with IGROV1 ovarian, in the assay with CAKI-1 renal and in the assay on HL-60(TB) leukemia was > 100 µM in each case.
Take `O=c1[nH]c2ccccc2c(O)c1Cc1ccccc1`: the TGI in the assay with COLO 205 colon, with RPMI-8226 leukemia, in the assay with MDA-MB-231 breast, with NCI-H226 lung, in the assay on MDA-N and in the assay on EKVX NSCLC was > 100 µM throughout. The TGI in the assay on SK-MEL-5 melanoma, in the assay with IGROV1 ovarian, with CAKI-1 renal and in the assay on HL-60(TB) leukemia was > 100 µM in each case.
On to `Oc1c(CN2CCCC2)ccc2cccnc12`, for which the TGI is 71.5 µM with COLO 205 colon; 48.2 µM with RPMI-8226 leukemia; > 100 µM with MDA-MB-231 breast; > 64 µM with NCI-H226 lung; > 100 µM with MDA-N; > 100 µM in the assay on EKVX NSCLC. Further, the TGI in the assay on SK-MEL-5 melanoma was > 67.7 µM; with IGROV1 ovarian it was > 84.5 µM; with CAKI-1 renal, 60.8 µM; in the assay on HL-60(TB) leukemia, > 53.9 µM.
Take `CCOP(=O)(CCCC(O)CNc1nc(N)nc(Cl)c1N=Nc1ccc(Cl)cc1)OCC` (stereo not given): the TGI in the assay with COLO 205 colon worked out at 20.4 µM; in the assay on RPMI-8226 leukemia it was 8.23 µM; with MDA-MB-231 breast, 8.6 µM; with NCI-H226 lung, 22.1 µM; with MDA-N, 18.8 µM; in the assay on EKVX NSCLC, 15.5 µM. In addition, the TGI with SK-MEL-5 melanoma was 15.5 µM; in the assay with IGROV1 ovarian it was 26.1 µM; in the assay on CAKI-1 renal, 13.9 µM; in the assay on HL-60(TB) leukemia, 4.19 µM.
For the molecule `Cc1cc2nc3c(C#N)c4c(c(Nc5ccc(F)cc5)n3c2cc1C)CCC4`, the TGI in the assay on COLO 205 colon, with RPMI-8226 leukemia, with MDA-MB-231 breast, in the assay on NCI-H226 lung, in the assay with MDA-N and with EKVX NSCLC was > 100 µM in each case. Besides, the TGI in the assay on SK-MEL-5 melanoma, in the assay on IGROV1 ovarian, with CAKI-1 renal and in the assay on HL-60(TB) leukemia was > 100 µM in each case.
Regarding `Cn1c(-c2ccc(-c3cc(-c4cccs4)c(-c4cccs4)n3C)cc2)cc(-c2cccs2)c1-c1cccs1`, the TGI in the assay on COLO 205 colon, in the assay with RPMI-8226 leukemia, with MDA-MB-231 breast, with NCI-H226 lung, in the assay with MDA-N and in the assay on EKVX NSCLC was > 100 µM throughout. Moreover, the TGI in the assay with SK-MEL-5 melanoma, with IGROV1 ovarian, in the assay with CAKI-1 renal and in the assay with HL-60(TB) leukemia was > 100 µM each time.
`CCOC(=O)/C=C/C(=O)O/C=C/[N+](=O)[O-]`: the TGI in the assay on COLO 205 colon, with RPMI-8226 leukemia, in the assay with MDA-MB-231 breast, in the assay with NCI-H226 lung, with MDA-N and in the assay on EKVX NSCLC was > 100 µM in each case. Moreover, the TGI in the assay with SK-MEL-5 melanoma is > 100 µM; in the assay on IGROV1 ovarian, > 100 µM; in the assay with CAKI-1 renal, 78.1 µM; in the assay with HL-60(TB) leukemia, > 100 µM.
`COc1ccc2nc3c([N+](=O)[O-])ccc(NCCN(C)C)c3c(N)c2c1`: the TGI came to 2.31 µM in the assay with COLO 205 colon; 0.557 µM in the assay on RPMI-8226 leukemia; 1.27 µM with MDA-MB-231 breast; 4.54 µM with NCI-H226 lung; 3.19 µM with MDA-N; 3.79 µM in the assay on EKVX NSCLC. The TGI in the assay on SK-MEL-5 melanoma turned out to be 3.45 µM; with IGROV1 ovarian it was 2.74 µM; in the assay with CAKI-1 renal it was 3.42 µM; with HL-60(TB) leukemia, 0.41 µM.
Take `Clc1ccc(CCNC2(c3cc4ccccc4s3)CCCCC2)cc1Cl`: the TGI was 49.2 µM in the assay on COLO 205 colon; 32.1 µM in the assay with RPMI-8226 leukemia; 43.2 µM in the assay on MDA-MB-231 breast; 40.7 µM in the assay with NCI-H226 lung; > 100 µM with MDA-N; 81.3 µM with EKVX NSCLC. Besides, the TGI was 31.7 µM in the assay on SK-MEL-5 melanoma, > 100 µM with IGROV1 ovarian, > 100 µM in the assay with CAKI-1 renal and 40.9 µM in the assay with HL-60(TB) leukemia.
As to `Clc1cc(-c2ccccc2)nc(Nc2nc3ccccc3[nH]2)n1`, the TGI was 51 µM in the assay with COLO 205 colon; > 100 µM in the assay on RPMI-8226 leukemia; 33.9 µM in the assay with MDA-MB-231 breast; > 100 µM with NCI-H226 lung; 38.7 µM in the assay on MDA-N; 49.5 µM in the assay on EKVX NSCLC. In addition, the TGI with SK-MEL-5 melanoma is > 100 µM; in the assay on IGROV1 ovarian, 33.2 µM; in the assay on CAKI-1 renal it was 3.95 µM; in the assay with HL-60(TB) leukemia it was > 100 µM.
`CC(=O)OCC1OC(n2cnc3nc(Br)[nH]c(=O)c32)C(OC(C)=O)C1OC(C)=O` (stereo not given): the TGI in the assay with COLO 205 colon, in the assay with RPMI-8226 leukemia, in the assay with MDA-MB-231 breast, with NCI-H226 lung, with MDA-N and in the assay with EKVX NSCLC was > 100 µM in each case. Further, the TGI in the assay with SK-MEL-5 melanoma, with IGROV1 ovarian, with CAKI-1 renal and in the assay with HL-60(TB) leukemia was > 100 µM throughout.
As for `COC(=O)C(Cc1ccccc1)NC(=O)C(CS)NC(=O)OC(C)(C)C` (stereo not drawn) (Boc-Cys-Phe-OMe; configuration not given here), the TGI in the assay with COLO 205 colon, with RPMI-8226 leukemia, with MDA-MB-231 breast, in the assay on NCI-H226 lung, with MDA-N and in the assay with EKVX NSCLC was > 100 µM in each case. Moreover, the TGI in the assay with SK-MEL-5 melanoma, in the assay with IGROV1 ovarian, with CAKI-1 renal and in the assay with HL-60(TB) leukemia was > 100 µM throughout.
On to `CC(C)NC(=O)OCc1c(COC(=O)NC(C)C)c(-c2ccc[n+](COC(=O)Cc3ccccc3)c2)n2c1CCC2`, for which the TGI is > 100 µM with COLO 205 colon; > 100 µM in the assay with RPMI-8226 leukemia; 74.7 µM with MDA-MB-231 breast; > 100 µM in the assay on NCI-H226 lung; > 100 µM in the assay with MDA-N; > 100 µM with EKVX NSCLC. For the same molecule, the TGI with SK-MEL-5 melanoma was > 100 µM; in the assay with IGROV1 ovarian, > 100 µM; with CAKI-1 renal, 34 µM; with HL-60(TB) leukemia it was > 100 µM.
`Cn1cnc(N2CCCC2)c(C#N)c1=S`: the TGI with COLO 205 colon, in the assay on RPMI-8226 leukemia, in the assay on MDA-MB-231 breast, in the assay with NCI-H226 lung, in the assay with MDA-N and in the assay with EKVX NSCLC was > 100 µM throughout. Moreover, the TGI in the assay on SK-MEL-5 melanoma, in the assay on IGROV1 ovarian, with CAKI-1 renal and with HL-60(TB) leukemia was > 100 µM in each case.
